Like-named read-outs stand apart in the source and are kept apart here. Numbered stars: 1 amine (or outer) side, 2 acyl side, 3 side chain; on linkers, the order of the positions; unused ones are H or OH. Bridge positions count the residues as written; N and C are the ends. Square brackets hold non-standard residues; d marks the D form. Peptide text beside a SMILES is read from it. * marks the point of attachment. C20 diacid = O=C(O)CCCCCCCCCCCCCCCCCCC(=O)*; γGlu = O=C(O)[C@H](CCC(=O)[*:2])N[*:1]; NMeI = CC[C@H](C)[C@H](NC)C(=O)O; Sar = CNCC(=O)O
Legend:
[1] = Solubility assessment (turbidity absorbance at 325 nm); type: physicochemical; conditions: stock 2 mg/ml diluted 1:1, ambient temperature (typically 25°C), n=1; for Solubility, Acetate buffer pH 4: 100 mM acetate buffer pH 4.0; for Solubility, Acetate buffer pH 5: 100 mM acetate buffer pH 5.0; for Solubility, Histidine buffer pH 6: 100 mM histidine buffer pH 6.0; for Solubility, Histidine buffer pH 7: 100 mM histidine buffer pH 7.0; for Solubility, Phosphate buffer pH 6: 100 mM phosphate buffer pH 6.0; for Solubility, Phosphate buffer pH 7: 100 mM phosphate buffer pH 7.0; for Solubility, Phosphate buffer pH 7.5: 100 mM phosphate buffer pH7.5
Summary of the method: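 Peptide stock (2 mg/ml, water pH 2.5) diluted 1:1 into 100 mM acetate (pH 4.0, 5.0), histidine (pH 6.0, 7.0) or phosphate (pH 6.0–7.5) buffer; absorbance at 325 nm read at about 25°C, n=1. A325 ≤ 0.02 taken as solubility ≥ 1 mg/ml.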

[2] = molecular target: T1, human amylin receptor 3 (hAMYR3) consisting of hCTR2 co-expressed with human Receptor Activity Modifying Protein 3 (hRAMP3) (Homo sapiens, UniProt O60896+P30988); experiment: hAMYR3 assay: induction of cAMP (AlphaScreen cAMP Assay kit) in COS7 cells expressing hAMYR3; type: cell-based
T1 construct: expressed in transfected cells
T1 sequence (P30988 25-474): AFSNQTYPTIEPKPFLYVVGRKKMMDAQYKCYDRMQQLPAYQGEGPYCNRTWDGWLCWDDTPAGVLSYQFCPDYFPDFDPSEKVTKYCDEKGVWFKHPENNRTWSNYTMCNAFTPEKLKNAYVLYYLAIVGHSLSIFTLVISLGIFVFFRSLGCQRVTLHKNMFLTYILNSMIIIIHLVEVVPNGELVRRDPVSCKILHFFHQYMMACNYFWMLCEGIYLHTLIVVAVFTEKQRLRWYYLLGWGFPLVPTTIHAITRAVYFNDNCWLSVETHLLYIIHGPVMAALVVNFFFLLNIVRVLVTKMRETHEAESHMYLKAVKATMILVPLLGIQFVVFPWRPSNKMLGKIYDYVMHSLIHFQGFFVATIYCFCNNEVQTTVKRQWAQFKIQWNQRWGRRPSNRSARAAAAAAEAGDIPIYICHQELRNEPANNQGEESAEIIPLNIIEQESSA
T1 sequence (O60896 24-148 partner): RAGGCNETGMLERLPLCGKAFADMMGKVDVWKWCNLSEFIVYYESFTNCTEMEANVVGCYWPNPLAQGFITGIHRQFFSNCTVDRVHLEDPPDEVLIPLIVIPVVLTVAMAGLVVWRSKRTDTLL
Summary of the method: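 Stable COS7 clone co-expressing hCTR2 and hRAMP3, stimulated 15 min at 37° C with increasing peptide in Tyrode buffer pH 7.4 with 100 µM IBMX and 0.1% casein. cAMP measured by AlphaScreen after lysis; EC50 and % efficacy versus pramlintide from 4PL fit.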

[3] = molecular target: T2, human calcitonin receptor (hCTR2) (Homo sapiens, UniProt P30988); experiment: hCTR2 assay: induction of cAMP (AlphaScreen cAMP Assay kit) in COS7 cells expressing hCTR2; type: cell-based
T2 construct: expressed in transfected cells
T2 sequence (P30988 25-474): T1 sequence (P30988 25-474)
Summary of the method: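 Functional agonism is measured as cAMP accumulation in a COS7 line stably transfected with hCTR2, lacking endogenous RAMPs. Peptides act for 15 min at 37° C with IBMX present, and curves are fitted with a 4-parameter logistic model.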

[4] = cAMP induction in COS7 cells expressing hAMYR3, average of a minimum of 3 determinations, read-out: hAMY R3 EC50
[5] = cAMP induction in COS7 cells expressing hCTR2, average of a minimum of 3 determinations, read-out: hCTR2 EC50

Row | Solubility, Acetate buffer pH 4 [1] | Solubility, Acetate buffer pH 5 [1] | Solubility, Histidine buffer pH 6 [1] | Solubility, Histidine buffer pH 7 [1] | Solubility, Phosphate buffer pH 6 [1] | Solubility, Phosphate buffer pH 7 [1] | Solubility, Phosphate buffer pH 7.5 [1] | EC50 [2, 4] | EC50 [3, 5] | Compound | EC50 [2] | EC50 [3]
1 | SS (SS indicates solubility ≥ 1mg/ml) | SS (SS indicates solubility ≥ 1mg/ml) | II (II indicates solubility ≤ 1 mg/ml) | II (II indicates solubility ≤ 1 mg/ml) | II (II indicates solubility ≤ 1 mg/ml) | II (II indicates solubility ≤ 1 mg/ml) | II (II indicates solubility ≤ 1 mg/ml) | 5300 pM | 670 pM | CC[C@H](C)[C@@H](C(=O)N[C@@H](CC(C)C)C(=O)N[C@@H](CO)C(=O)N[C@@H](CO)C(=O)N[C@H](C(=O)N[C@@H](CC(N)=O)C(=O)N[C@H](C(=O)NCC(=O)N[C@@H](CO)C(=O)N[C@@H](CC(N)=O)C(=O)N[C@H](C(=O)N[C@@H](Cc1ccc(O)cc1)C(=O)NC)[C@@H](C)O)C(C)C)[C@@H](C)O)N(C)C(=O)CN(C)C(=O)[C@H](Cc1ccccc1)NC(=O)[C@H](CC(N)=O)NC(=O)[C@H](CC(N)=O)NC(=O)[C@H](CO)NC(=O)[C@H](CO)NC(=O)[C@H](CCCNC(=N)N)NC(=O)[C@H](Cc1c[nH]cn1)NC(=O)[C@H](CC(C)C)NC(=O)[C@H](Cc1ccccc1)NC(=O)[C@H](CCC(=O)O)NC(=O)[C@H](C)NC(=O)[C@H](CC(C)C)NC(=O)[C@H](CCCNC(=N)N)NC(=O)[C@H](CCC(N)=O)NC(=O)[C@@H](NC(=O)[C@H](C)NC(=O)[C@@H]1CSSC[C@H](NC(=O)[C@H](CCCNC(=N)N)NC(=O)CC[C@H](NC(=O)CCCCCCCCCCCCCCCCCCC(=O)O)C(=O)O)C(=O)N[C@@H](CC(N)=O)C(=O)N[C@@H]([C@@H](C)O)C(=O)N[C@@H](C)C(=O)N[C@@H]([C@@H](C)O)C(=O)N1)[C@@H](C)O [Compound 155, [19CD]-isoGlu-RC()NTATC()ATQRLAEFLHRSSNNF-Gly(Me)-Ile(Me)-LSSTNVGSNTY-NHMe] ({C20 diacid-γGlu}-RCNTATCATQRLAEFLHRSSNNF[Sar][NMeI]LSSTNVGSNTY-NHMe; disulfide 2-7) |  | 
2 | II (II indicates solubility ≤ 1 mg/ml) | SS (SS indicates solubility ≥ 1mg/ml) | SS (SS indicates solubility ≥ 1mg/ml) | SS (SS indicates solubility ≥ 1mg/ml) | SS (SS indicates solubility ≥ 1mg/ml) | SS (SS indicates solubility ≥ 1mg/ml) | SS (SS indicates solubility ≥ 1mg/ml) | 160 pM | 72 pM | CC[C@H](C)[C@@H](C(=O)N[C@@H](CC(C)C)C(=O)N[C@@H](CO)C(=O)N[C@@H](CO)C(=O)N[C@H](C(=O)N[C@@H](CC(=O)O)C(=O)N[C@H](C(=O)NCC(=O)N[C@@H](CO)C(=O)N[C@@H](CC(=O)O)C(=O)N[C@H](C(=O)N1CCC[C@H]1C(N)=O)[C@@H](C)O)C(C)C)[C@@H](C)O)N(C)C(=O)[C@H](C)NC(=O)CN(C)C(=O)[C@H](Cc1ccccc1)NC(=O)[C@H](CO)NC(=O)[C@H](CO)NC(=O)[C@H](CCCNC(=N)N)NC(=O)[C@H](Cc1c[nH]cn1)NC(=O)[C@H](CC(C)C)NC(=O)[C@H](Cc1ccccc1)NC(=O)[C@H](CCC(=O)O)NC(=O)[C@H](C)NC(=O)[C@H](CC(C)C)NC(=O)[C@H](CCCNC(=N)N)NC(=O)[C@H](CC(=O)O)NC(=O)[C@@H](NC(=O)[C@H](C)NC(=O)[C@@H]1CSSC[C@H](NC(=O)[C@H](Cc2c[nH]c3ccccc23)NC(=O)CC[C@H](NC(=O)CCCCCCCCCCCCCCCCCCC(=O)O)C(=O)O)C(=O)NCC(=O)N[C@@H]([C@@H](C)O)C(=O)N[C@@H](C)C(=O)N[C@@H]([C@@H](C)O)C(=O)N1)[C@@H](C)O [Compound 157, [19CD]-isoGlu-WC()GTATC()ATDRLAEFLHRSSF-Gly(Me)-A-Ile(Me)-LSSTDVGSDTP-NH2] ({C20 diacid-γGlu}-WCGTATCATDRLAEFLHRSSF[Sar]A[NMeI]LSSTDVGSDTP-NH2; disulfide 2-7) |  | 
3 | SS (SS indicates solubility ≥ 1mg/ml) | SS (SS indicates solubility ≥ 1mg/ml) | SS (SS indicates solubility ≥ 1mg/ml) | SS (SS indicates solubility ≥ 1mg/ml) | SS (SS indicates solubility ≥ 1mg/ml) | SS (SS indicates solubility ≥ 1mg/ml) | SS (SS indicates solubility ≥ 1mg/ml) | 110 pM | 48 pM | CC[C@H](C)[C@@H](C(=O)N[C@@H](CC(C)C)C(=O)N[C@@H](CO)C(=O)N[C@@H](CO)C(=O)N[C@H](C(=O)N[C@@H](CC(=O)O)C(=O)N[C@H](C(=O)NCC(=O)N[C@@H](CO)C(=O)N[C@@H](CC(=O)O)C(=O)N[C@H](C(=O)N1CCC[C@H]1C(N)=O)[C@@H](C)O)C(C)C)[C@@H](C)O)N(C)C(=O)[C@H](C)NC(=O)CN(C)C(=O)[C@H](Cc1ccccc1)NC(=O)[C@H](CO)NC(=O)[C@H](CO)NC(=O)[C@H](CCCNC(=N)N)NC(=O)[C@H](Cc1c[nH]cn1)NC(=O)[C@H](CC(C)C)NC(=O)[C@H](Cc1ccccc1)NC(=O)[C@H](CCC(=O)O)NC(=O)[C@H](C)NC(=O)[C@H](CC(C)C)NC(=O)[C@H](CCCNC(=N)N)NC(=O)[C@H](CC(=O)O)NC(=O)[C@@H](NC(=O)[C@H](C)NC(=O)[C@@H]1CSSC[C@H](NC(=O)[C@H](CCCNC(=N)N)NC(=O)CC[C@H](NC(=O)CCCCCCCCCCCCCCCCCCC(=O)O)C(=O)O)C(=O)NCC(=O)N[C@@H]([C@@H](C)O)C(=O)N[C@@H](C)C(=O)N[C@@H]([C@@H](C)O)C(=O)N1)[C@@H](C)O [Compound 158, [19CD]-isoGlu-RC()GTATC()ATDRLAEFLHRSSF-Gly(Me)-A-Ile(Me)-LSSTDVGSDTP-NH2] ({C20 diacid-γGlu}-RCGTATCATDRLAEFLHRSSF[Sar]A[NMeI]LSSTDVGSDTP-NH2; disulfide 2-7) |  | 

Row | Compound | Solubility, Acetate buffer pH 4 [1] | Solubility, Acetate buffer pH 5 [1] | Solubility, Histidine buffer pH 6 [1] | Solubility, Histidine buffer pH 7 [1] | Solubility, Phosphate buffer pH 6 [1] | Solubility, Phosphate buffer pH 7 [1] | Solubility, Phosphate buffer pH 7.5 [1] | EC50 [2, 4] | EC50 [3, 5] | EC50 [2] | EC50 [3]
4 | CC[C@H](C)[C@@H](C(=O)N[C@@H](CC(C)C)C(=O)N[C@@H](CO)C(=O)N[C@@H](CO)C(=O)N[C@H](C(=O)N[C@@H](CC(N)=O)C(=O)N[C@H](C(=O)NCC(=O)N[C@@H](CO)C(=O)N[C@@H](CC(N)=O)C(=O)N[C@H](C(=O)N[C@@H](Cc1ccc(O)cc1)C(=O)NC)[C@@H](C)O)C(C)C)[C@@H](C)O)N(C)C(=O)[C@H](C)NC(=O)CN(C)C(=O)[C@H](Cc1ccccc1)NC(=O)[C@H](CC(N)=O)NC(=O)[C@H](CC(N)=O)NC(=O)[C@H](CO)NC(=O)[C@H](CO)NC(=O)[C@H](CCCNC(=N)N)NC(=O)[C@H](Cc1c[nH]cn1)NC(=O)[C@H](CC(C)C)NC(=O)[C@H](Cc1ccccc1)NC(=O)[C@H](CCC(=O)O)NC(=O)[C@H](C)NC(=O)[C@H](CC(C)C)NC(=O)[C@H](CCCNC(=N)N)NC(=O)[C@H](CCC(N)=O)NC(=O)[C@@H](NC(=O)[C@H](C)NC(=O)[C@@H]1CSSC[C@H](NC(=O)[C@H](CCCNC(=N)N)NC(=O)CC[C@H](NC(=O)CCCCCCCCCCCCCCCCCCC(=O)O)C(=O)O)C(=O)N[C@@H](CC(N)=O)C(=O)N[C@@H]([C@@H](C)O)C(=O)N[C@@H](C)C(=O)N[C@@H]([C@@H](C)O)C(=O)N1)[C@@H](C)O [Compound 154, [19CD]-isoGlu-RC()NTATC()ATQRLAEFLHRSSNNF-Gly(Me)-A-Ile(Me)-LSSTNVGSNTY-NHMe] ({C20 diacid-γGlu}-RCNTATCATQRLAEFLHRSSNNF[Sar]A[NMeI]LSSTNVGSNTY-NHMe; disulfide 2-7) | SS (SS indicates solubility ≥ 1mg/ml) | SS (SS indicates solubility ≥ 1mg/ml) | SS (SS indicates solubility ≥ 1mg/ml) | II (II indicates solubility ≤ 1 mg/ml) | II (II indicates solubility ≤ 1 mg/ml) | II (II indicates solubility ≤ 1 mg/ml) | II (II indicates solubility ≤ 1 mg/ml) |  |  | 6300 pM | 550 pM

Source: patent EP3046573B1, “AMYLIN ANALOGUES” (Zealand Pharma A/S, priority 2013, dated 2015)
